Measured values taken from US20030087906A1, “NITROGEN SUBSTITUTED BIARYL PURINE DERIVATIVES AS POTENT ANTIPROLIFERATIVE AGENTS” (priority 2001, published 2003).
Values joined by “and” are separate entries in the source; they are usually repeats but may differ in a detail not shown here. Equal entries are not always repeated.

Legend:
[1] = biological target: T1, CyclinB/cdk1 (Homo sapiens, UniProt P06493); experiment: CyclinB/cdk1 protein kinase assay (histone H1 phosphorylation); format: biochemical; settings: complex immunopurified from HeLa cells; 15 μM ATP; replicate experiments
T1 construct: Monoclonal antibody against cyclinB (GNS1) is added to the supernatant; endogenous in cells
Description: HeLa cells are blocked at the G1/S border by culturing in the presence of 2 mM thymidine for 20 h. The cells are then rinsed 3×in phosphate buffered saline and resuspended in regular medium. After 4 h of culture, the mitotic blocker, nocodazole is added to a final concentration of 75 ng/ml. […] The lysate is then clarified by centrifugation at 10,000×g for 10 min. The supernatant is collected and diluted 1:5 with Lysis Buffer. Monoclonal antibody against cyclinB (GNS1) is added to the supernatant to a final concentration of 5 μg/ml and shaken at 4° C. for 2 h. The immune complexes are then collected by the addition of 200 μl of protein agarose beads for 1 h. The beads are washed 4×in lysis buffer and 1×in kinase assay buffer.
Duplicate assays were performed at each concentration.

[2] = tested on: MDA-MB-231/ATCC; experiment: NCI 60-cell line growth inhibition assay; format: cell-based; settings: Homo sapiens
[3] = tested on: MDA-N; experiment: NCI 60-cell line growth inhibition assay; format: cell-based; settings: Homo sapiens
[4] = tested on: SNB-75; experiment: NCI 60-cell line growth inhibition assay; format: cell-based; settings: Homo sapiens
[5] = tested on: U251; experiment: NCI 60-cell line growth inhibition assay; format: cell-based; settings: Homo sapiens, U-251
[6] = tested on: HCC-2998; experiment: NCI 60-cell line growth inhibition assay; format: cell-based; settings: Homo sapiens
[7] = tested on: HCT-15; experiment: NCI 60-cell line growth inhibition assay; format: cell-based; settings: Homo sapiens
[8] = tested on: HT29; experiment: NCI 60-cell line growth inhibition assay; format: cell-based; settings: Homo sapiens, HT-29
[9] = tested on: KM12; experiment: NCI 60-cell line growth inhibition assay; format: cell-based; settings: Homo sapiens
[10] = tested on: K-562; experiment: NCI 60-cell line growth inhibition assay; format: cell-based; settings: Homo sapiens, K562
[11] = tested on: M14; experiment: NCI 60-cell line growth inhibition assay; format: cell-based; settings: Homo sapiens
[12] = tested on: UACC-257; experiment: NCI 60-cell line growth inhibition assay; format: cell-based; settings: Homo sapiens
[13] = tested on: NCI-H23; experiment: NCI 60-cell line growth inhibition assay; format: cell-based; settings: Homo sapiens
[14] = tested on: IGROV1; experiment: NCI 60-cell line growth inhibition assay; format: cell-based; settings: Homo sapiens, IGROV-1
[15] = tested on: OVCAR-5; experiment: NCI 60-cell line growth inhibition assay; format: cell-based; settings: Homo sapiens
[16] = tested on: OVCAR-8; experiment: NCI 60-cell line growth inhibition assay; format: cell-based; settings: Homo sapiens
[17] = tested on: A498; experiment: NCI 60-cell line growth inhibition assay; format: cell-based; settings: Homo sapiens
[18] = tested on: SN12C; experiment: NCI 60-cell line growth inhibition assay; format: cell-based; settings: Homo sapiens
[19] = tested on: Tumor Cells in Hollow Fibers; experiment: NCI Hollow Fiber Assay (in vivo evaluation); settings: for IP Score: IP fibers; for SC score: SC fibers
[20] = MTD (NCI in vivo evaluation, Table 8); settings: mouse
[21] = biological target: CyclinA/cdk2 (Homo sapiens, UniProt P24941); experiment: CyclinA/cdk2 protein kinase assay (histone H1 phosphorylation); settings: IC50 CyclinA/cdk2, complex immunopurified from HeLa cells; 15 μM ATP; replicate experiments
[22] = biological target: CyclinE/cdk2 (Homo sapiens, UniProt P24941); experiment: CyclinE/cdk2 protein kinase assay (histone H1 phosphorylation); settings: IC50 CyclinE/cdk2, complex immunopurified from HeLa cells; 15 μM ATP; replicate experiments
[23] = tested on: HeLa S-3 cells; experiment: Inhibition of cell growth of HeLa cells (SRB); format: cell-based, human; settings: 2 days of treatment, replicate experiments
[24] = tested on: MDA-MB-435; experiment: NCI 60-cell line growth inhibition assay; format: cell-based; settings: Homo sapiens
[25] = tested on: SF-539; experiment: NCI 60-cell line growth inhibition assay; format: cell-based; settings: Homo sapiens

T1 sequence (P06493 whole entry): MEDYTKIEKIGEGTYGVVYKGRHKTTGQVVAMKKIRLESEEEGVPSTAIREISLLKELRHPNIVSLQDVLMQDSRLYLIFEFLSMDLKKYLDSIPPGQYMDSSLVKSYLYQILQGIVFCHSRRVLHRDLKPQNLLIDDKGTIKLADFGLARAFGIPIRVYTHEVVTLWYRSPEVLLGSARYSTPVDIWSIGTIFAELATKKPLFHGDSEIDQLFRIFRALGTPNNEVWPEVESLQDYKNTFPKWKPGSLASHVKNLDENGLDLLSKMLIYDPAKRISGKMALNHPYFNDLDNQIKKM
T1 sequence (P14635 whole entry partner): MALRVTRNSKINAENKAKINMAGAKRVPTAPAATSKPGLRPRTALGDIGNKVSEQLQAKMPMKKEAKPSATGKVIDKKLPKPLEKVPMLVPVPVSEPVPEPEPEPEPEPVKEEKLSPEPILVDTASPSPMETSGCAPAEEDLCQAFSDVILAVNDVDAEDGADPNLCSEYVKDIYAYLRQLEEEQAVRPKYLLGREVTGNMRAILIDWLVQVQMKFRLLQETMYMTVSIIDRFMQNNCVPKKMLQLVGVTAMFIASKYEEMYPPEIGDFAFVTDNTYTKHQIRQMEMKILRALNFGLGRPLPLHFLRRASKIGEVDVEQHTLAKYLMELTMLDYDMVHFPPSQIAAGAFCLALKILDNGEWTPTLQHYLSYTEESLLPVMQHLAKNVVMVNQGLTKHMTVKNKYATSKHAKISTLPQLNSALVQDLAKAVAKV

SMILES	GI50 ([2]; MDA-MB-231/ATCC (Breast)) [µM]	GI50 ([4]; SNB-75 (CNS)) [µM]	GI50 ([5]; U251 (CNS)) [µM]	GI50 ([6]; HCC-2998 (Colon)) [µM]	GI50 ([7]; HCT-15 (Colon)) [µM]	GI50 ([8]; HT29 (Colon)) [µM]	GI50 ([9]; KM12 (Colon)) [µM]	GI50 ([10]; K-562 (Leukemia)) [µM]	GI50 ([11]; M14 (Melanoma)) [µM]	GI50 ([12]; UACC-257 (Melanoma)) [µM]	GI50 ([13]; NCI-H23 (Non-Small Cell Lung)) [µM]	GI50 ([14]; IGROV1 (Ovarian)) [µM]	GI50 ([15]; OVCAR-5 (Ovarian)) [µM]	GI50 ([16]; OVCAR-8 (Ovarian)) [µM]	GI50 ([17]; A498 (Renal)) [µM]	GI50 ([18]; SN12C (Renal)) [µM]	IP Score [19]	SC score [19]	GI50 ([25]; SF-539 (CNS)) [µM]	GI50 ([23]; Homo sapiens, HeLa S3, 48 h) [µM]	further results
CC(C)n1cnc2c(NCc3ccc(-c4ccccn4)cc3)nc(N[C@H]3CC[C@H](N)CC3)nc21 [Compound 78]	< 0.01	< 0.01	0.02	< 0.01	1.48	< 0.01	< 0.01	0.02	< 0.01	0.02	0.01	< 0.01	< 0.01	0.02	0.03	< 0.01	34	0	–	–	IC50 [1]: 0.8 µM; GI50 ([3]; MDA-N (Breast)): < 0.01 µM; Cell Types Killed [19]: OVCAR 3, SF29; MTD [20]: 6.3 mg/kg; IC50 [21]: 0.9 µM and 0.7 µM; IC50 [22]: 0.6 µM and 0.3 µM and 0.2 µM
CC(=O)N[C@H]1CC[C@H](Nc2nc(NCc3ccc(-c4ccccc4)nc3)c3ncn(C(C)C)c3n2)CC1 [Compound 87]	< 0.01	0.012	0.028	< 0.01	0.066	< 0.01	< 0.01	0.024	< 0.01	–	0.022	0.052	0.051	–	0.1	< 0.01	30	2	0.081	–	IC50 [1]: 5 µM; GI50 [23]: 0.006 µM; GI50 ([24]; MDA-MB-435 (Breast)): < 0.01 µM; IC50 [21]: 4 µM and 2 µM and 0.5 µM; IC50 [22]: 1 µM and 0.3 µM and 0.1 µM
CC[C@H](CO)Nc1nc(NCc2ccc(-c3cccc([N+](=O)[O-])c3)cc2)c2ncn(C(C)C)c2n1 [Compound 48]	0.09	< 0.01	0.17	–	0.02	< 0.01	0.02	0.16	< 0.01	0.04	0.07	0.23	0.16	0.1	0.39	0.03	–	–	0.38	0.3	GI50 [23]: 0.6 µM and 0.5 µM; GI50 ([3]; MDA-N (Breast)): 0.02 µM; IC50 [21]: 22 µM and 6 µM; IC50 [22]: 1 µM and 5 µM
CC[C@H](CO)Nc1nc(NCc2ccc(-c3ccc(OC)cc3)cc2)c2ncn(C(C)C)c2n1 [Compound 43]	3.2	–	2.3	3.4	3.9	3.6	2.3	3.1	2.2	4.8	4.3	3.4	3.6	3.9	3	–	–	–	3.4	4	GI50 ([24]; MDA-MB-435 (Breast)): 2.1 µM
Cn1cnc2c(NCc3ccccc3)nc(NCCO)nc21 [Olomoucine, reference compound]	100	25	50	63	40	63	40	100	100	79	79	40	40	63	32	100	–	–	32	75	GI50 ([24]; MDA-MB-435 (Breast)): 63 µM; GI50 ([3]; MDA-N (Breast)): 79 µM
CC[C@H](CO)Nc1nc(NCc2ccc(-c3ccccc3)cc2)c2ncn(C(C)C)c2n1 [Compound 73]	–	–	–	–	–	–	–	–	–	–	–	–	–	–	–	–	2	0	–	0.3	GI50 ([2]; Breast, MDA-MB-231/ATCC): 0.5 µM; GI50 ([24]; Breast, MDA-MB-435): 0.25 µM; GI50 ([3]; Breast, MDA-N): 0.13 µM; GI50 ([25]; CNS, SF-539): 0.76 µM; GI50 ([4]; CNS, SNB-75): 0.02 µM; GI50 ([5]; CNS, U251): 0.32 µM; GI50 ([6]; Colon, HCC-2998): 0.2 µM; GI50 ([7]; Colon, HCT-15): 0.18 µM; GI50 ([9]; Colon, KM12): 0.13 µM; GI50 ([10]; Leukemia, K-562): 0.16 µM; GI50 ([11]; Melanoma, M14): 0.03 µM; GI50 ([12]; Melanoma, UACC-257): 0.16 µM; GI50 ([13]; Non-Small Cell Lung, NCI-H23): 0.32 µM; GI50 ([14]; Ovarian, IGROV1): 0.32 µM; GI50 ([15]; Ovarian, OVCAR-5): 0.25 µM; GI50 ([17]; Renal, A498): 2.88 µM; MTD [20]: 100 mg/kg
CC[C@H](CO)Nc1nc(NCc2ccc(-c3ccccn3)cc2)c2ncn(C(C)C)c2n1 [Compound 17]	–	–	–	–	–	–	–	–	–	–	–	–	–	–	–	–	8	0	–	–	GI50 ([24]; Breast, MDA-MB-435): 0.2 µM; GI50 ([3]; Breast, MDA-N): 0.11 µM; GI50 ([25]; CNS, SF-539): 0.4 µM; GI50 ([4]; CNS, SNB-75): 0.02 µM; GI50 ([5]; CNS, U251): 0.4 µM; GI50 ([6]; Colon, HCC-2998): 0.03 µM; GI50 ([7]; Colon, HCT-15): 0.04 µM; GI50 ([8]; Colon, HT29): 0.1 µM; GI50 ([9]; Colon, KM12): 0.03 µM; GI50 ([10]; Leukemia, K-562): 0.16 µM; GI50 ([11]; Melanoma, M14): 0.03 µM; GI50 ([12]; Melanoma, UACC-257): 0.2 µM; GI50 ([13]; Non-Small Cell Lung, NCI-H23): 0.16 µM; GI50 ([14]; Ovarian, IGROV1): 0.2 µM; GI50 ([15]; Ovarian, OVCAR-5): 0.26 µM; GI50 ([16]; Ovarian, OVCAR-8): 0.13 µM; GI50 ([17]; Renal, A498): 1.58 µM; GI50 ([18]; Renal, SN12C): 0.56 µM; MTD [20]: 100 mg/kg
